33 molecules from patent publication US20140155376A1, “PYRROLOPYRAZINE KINASE INHIBITORS” (Hoffmann-La Roche Inc., priority 2010, published 2014) can be followed below.

For this test, the target named is T1, JAK3 (recombinant human kinase domain; h-jak3(810-1124)) (Homo sapiens, UniProt P52333).
T1 construct: h-jak3(810- 1124)-sf9-c; made in house; host or cells: Sf9 insect cells
T1 sequence (P52333 810-1124): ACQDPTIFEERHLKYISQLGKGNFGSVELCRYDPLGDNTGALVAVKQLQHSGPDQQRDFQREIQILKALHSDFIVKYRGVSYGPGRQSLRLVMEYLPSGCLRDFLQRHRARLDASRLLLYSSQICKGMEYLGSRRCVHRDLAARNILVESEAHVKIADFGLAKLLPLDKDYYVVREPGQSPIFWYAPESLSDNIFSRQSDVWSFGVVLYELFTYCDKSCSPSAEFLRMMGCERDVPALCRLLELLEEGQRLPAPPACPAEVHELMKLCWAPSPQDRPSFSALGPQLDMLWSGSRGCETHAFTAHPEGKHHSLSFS
The experiment in a line: Determination of IC50 of Janus Kinase (JAK) inhibition: JAK3, radioactive end-point assay with 33P-ATP. The class given is biochemical. The note with it: JAK3 kinase domain; ATP 1.5 uM, peptide 50 uM, 20 minutes, room temperature, 10% DMSO; read-out: Ic50 h-jak3(810-1124)-sf9-c:no additive.
Excerpt: Determination of IC50 of Janus Kinase (JAK) Inhibition:
Enzymes and peptide substrate used are described below: • JAK1: Recombinant human kinase domain from Invitrogen (Cat # PV4774) • JAK3: Recombinant human kinase domain from Millipore (Cat #14-629) or prepared. • JAK2: Recombinant human kinase domain from Millipore (Cat #14-640) • Substrate: N-terminally biotinylated 14-mer peptide derived from activation loop of JAK1 with sequence of the peptide substrate: Biotin-[sequence]
Assay Conditions Used are Described Below: • Assay Buffer: JAK Kinase Buffer: 50 mM Hepes [pH 7.2], 10 mM MgCl2, 1 mM DTT, • 1 mg/ml BSA. The assay is carried out in this buffer. • Assay Format The kinase activity of all three JAK kinases is measured using a radioactive, end-point assay and with trace amounts of ^33P-ATP. The assays are carried out in 96-well polypropylene plates.
All concentrations are final in the reaction mixture and all incubations are carried at room temperature. […] Final concentration of DMSO in the reaction is 10%. • 2) Compounds are preincubated with enzyme (0.5 nM JAK3 (commercially available), 0.2 nM JAK3 (prepared), 1 nM JAK2, 5 nM JAK1) for 10 minutes. • 3) Reactions are initiated by the addition of a cocktail of the two substrates (ATP and peptide premixed in the JAK Kinase Buffer). In the JAK2/JAK3 assays, ATP and the peptide are used at concentrations of 1.5 uM and 50 uM, respectively. JAK1 assay is carried out at an ATP concentration of 10 uM and a peptide concentration of 50 uM. • 4) The duration of the assay for JAK2 and JAK3 is 20 minutes. JAK1 assay is carried out for 40 minutes. With all three enzymes, reactions are terminated by the addition of 0.5M EDTA to a final concentration of 100 mM. • 5) 25 ul of terminated reactions are transferred to 150 ul of a 7.5% (v/v) slurry of streptavidin-coated sepharose beads in MgCl2- and CaCl2-free 1× Phosphate Buffered Saline containing 50 mM of EDTA in 96-well, 1.2 um MultiScreen-BV filter plates. • 6) After a 30-minute incubation, the beads are washed under vacuum with the following buffers: • a. 3 to 4 washes with 200 ul of 2M NaCl. • b. 3 to 4 washes with 200 ul of 2M NaCl plus 1% (v/v) phosphoric acid. • c. 1 wash with water. • 7) Washed plates are dried in a 60° C. oven for between 1 to 2 hours. • 8) 70 ul of Microscint 20 scintillation fluid is added to each well of filter plates and after at least 30 minutes of incubation, radioactive counts are measured in a Perkin-Elmer microplate scintillation counter.
For `C[C@H](NC(=O)c1c[nH]c2ncc(-c3ccc(C(=O)NCc4ccncc4)s3)nc12)C(C)(C)C` [Example I-165, 2-{5-[(Pyridin-4-ylmethyl)-carbamoyl]-thiophen-2-yl}-5H-pyrrolo[2,3-b]pyrazine-7-carboxylic acid ((S)-1,2,2-trimethyl-propyl)-amide], the IC50 was 0.17 nM.

As to `C=Cc1cnc2[nH]cc(C(=O)NCC(C)(C)CO)c2n1` [Example I-36, 2-Vinyl-5H-pyrrolo[2,3-b]pyrazine-7-carboxylic acid (3-hydroxy-2,2-dimethyl-propyl)-amide], the IC50 is 33.6 nM.

As to `Cc1csc(CNC(=O)c2ccc(-c3cnc4[nH]cc(C(=O)N[C@@H](C)C(C)(C)C)c4n3)s2)c1` [Example I-192, 2-{5-[(4-Methyl-thiophen-2-ylmethyl)-carbamoyl]-thiophen-2-yl}-5H-pyrrolo[2,3-b]pyrazine-7-carboxylic acid ((S)-1,2,2-trimethyl-propyl)-amide], the IC50 was 0.4 nM.

Regarding `C[C@H](NC(=O)c1c[nH]c2ncc(C3CCCCC3)nc12)C(C)(C)O` [Example I-11, 2-Cyclohexyl-5H-pyrrolo[2,3-b]pyrazine-7-carboxylic acid ((S)-2-hydroxy-1,2-dimethyl-propyl)-amide], the IC50 turned out to be 152 nM.

For the molecule `CC(NC(=O)c1ccc(-c2cnc3[nH]cc(C(=O)N[C@@H](C)C(C)(C)C)c3n2)s1)c1ccc(F)cc1` (stereo partly drawn) [Example I-195, 2-{5-[1-(4-Fluoro-phenyl)-ethylcarbamoyl]-thiophen-2-yl}-5H-pyrrolo[2,3-b]pyrazine-7-carboxylic acid ((S)-1,2,2-trimethyl-propyl)-amide], the IC50 came out at 0.46 nM.

`Cc1cccc(-n2cnc(-c3cnc4[nH]cc(C(=O)N[C@@H](C)C(C)(C)C)c4n3)c2)c1` [Example I-150, 2-(1-m-Tolyl-1H-imidazol-4-yl)-5H-pyrrolo[2,3-b]pyrazine-7-carboxylic acid ((S)-1,2,2-trimethyl-propyl)-amide]: the IC50 is 5.12 nM.

`CON(C)C(=O)c1ccc(-c2cnc3[nH]cc(C(=O)N[C@@H](C)C(C)(C)C)c3n2)s1` [Example I-196, 2-[5-(Methoxy-methyl-carbamoyl)-thiophen-2-yl]-5H-pyrrolo[2,3-b]pyrazine-7-carboxylic acid ((S)-1,2,2-trimethyl-propyl)-amide]: the half-inhibitory concentration (IC50) was 0.47 nM.

For `C[C@H](NC(=O)c1c[nH]c2ncc(-c3ccc(C(=O)Nc4ccc5c(c4)CCCC5)s3)nc12)C(C)(C)C` [Example I-200, 2-[5-(5,6,7,8-Tetrahydro-naphthalen-2-ylcarbamoyl)-thiophen-2-yl]-5H-pyrrolo[2,3-b]pyrazine-7-carboxylic acid ((S)-1,2,2-trimethyl-propyl)-amide], the IC50 is 0.73 nM.

Take `C[C@@H](NC(=O)c1c[nH]c2ncc(Oc3ccc(F)cc3F)nc12)C(C)(C)C` [Example I-134, 2-(2,4-Difluoro-phenoxy)-5H-pyrrolo[2,3-b]pyrazine-7-carboxylic acid ((R)-1,2,2-trimethyl-propyl)-amide]: the IC50 was 891 nM.

Consider `CCNC(=O)c1c[nH]c2ncc(Oc3ccc(C#N)cc3)nc12` [Example I-267, 2-(4-Cyano-phenoxy)-5H-pyrrolo[2,3-b]pyrazine-7-carboxylic acid ethylamide], for which the IC50 amounted to 2360 nM.

As to `C[C@@H](NC(=O)c1c[nH]c2ncc(-c3ccccn3)nc12)C(C)(C)O` [Example I-112, 2-Pyridin-2-yl-5H-pyrrolo[2,3-b]pyrazine-7-carboxylic acid ((R)-2-hydroxy-1,2-dimethyl-propyl)-amide], the IC50 is 86.2 nM.

Consider `CC(C)c1cccc(-n2cnc(-c3cnc4[nH]cc(C(=O)N[C@@H](C)C(C)(C)C)c4n3)c2)c1` [Example I-152, 2-[1-(3-Isopropyl-phenyl)-1H-imidazol-4-yl]-5H-pyrrolo[2,3-b]pyrazine-7-carboxylic acid ((S)-1,2,2-trimethyl-propyl)-amide], for which the IC50 was determined as 25.3 nM.

For the molecule `C[C@H](NC(=O)c1c[nH]c2ncc(-c3ccc(C(=O)NCc4c(F)cccc4F)s3)nc12)C(C)(C)C` [Example I-188, 2-[5-(2,6-Difluoro-benzylcarbamoyl)-thiophen-2-yl]-5H-pyrrolo[2,3-b]pyrazine-7-carboxylic acid ((S)-1,2,2-trimethyl-propyl)-amide], the IC50 came out at 0.41 nM.

Turning to `C[C@H](NC(=O)c1c[nH]c2ncc(-c3ccccn3)nc12)C(C)(C)C` [Example I-72, 2-Pyridin-2-yl-5H-pyrrolo[2,3-b]pyrazine-7-carboxylic acid ((S)-1,2,2-trimethyl-propyl)-amide], the IC50 was 10 nM.

As to `CCNC(=O)c1c[nH]c2ncc(Oc3ccccc3)nc12` [Example I-131, 2-Phenoxy-5H-pyrrolo[2,3-b]pyrazine-7-carboxylic acid ethylamide], the IC50 turned out to be 1030 nM.

`C[C@@H](NC(=O)c1c[nH]c2ncc(C3CC3)nc12)C1(O)CCCC1` [Example I-82, 2-Cyclopropyl-5H-pyrrolo[2,3-b]pyrazine-7-carboxylic acid [(R)-1-(1-hydroxy-cyclopentyl)-ethyl]-amide]: the IC50 is 15.2 nM.

With `C[C@H](NC(=O)c1c[nH]c2ncc(-c3ccc(C(=O)N4CC5(COC5)C4)s3)nc12)C(C)(C)C` [Example I-217, 2-[5-(2-Oxa-6-aza-spiro[3.3]heptane-6-carbonyl)-thiophen-2-yl]-5H-pyrrolo[2,3-b]pyrazine-7-carboxylic acid ((S)-1,2,2-trimethyl-propyl)-amide], the IC50 was found to be 0.11 nM.

As to `Cc1ccc(-c2cnc3[nH]cc(C(=O)N[C@@H](C)C(C)(C)O)c3n2)cn1` [Example I-21, 2-(6-Methyl-pyridin-3-yl)-5H-pyrrolo[2,3-b]pyrazine-7-carboxylic acid ((S)-2-hydroxy-1,2-dimethyl-propyl)-amide], the IC50 is 45 nM.

Consider `CC(C)(C)[C@@H](CO)NC(=O)c1c[nH]c2ncc(C3CC3)nc12` [Example I-47, 2-Cyclopropyl-5H-pyrrolo[2,3-b]pyrazine-7-carboxylic acid ((S)-1-hydroxymethyl-2,2-dimethyl-propyl)-amide], for which the IC50 stood at 343 nM.

As for `CC(C)NC(=O)c1c[nH]c2ncc(Oc3ccc4c(c3)C(O)CC4)nc12` (stereo not drawn) [Example I-293, 2-(3-Hydroxy-indan-5-yloxy)-5H-pyrrolo[2,3-b]pyrazine-7-carboxylic acid isopropylamide], the concentration for half-maximal inhibition (IC50) was found to be 162 nM.

In the case of `CCCC[C@H](NC(=O)c1c[nH]c2ncc(C3CC3)nc12)C(C)(C)O` [Example I-49, 2-Cyclopropyl-5H-pyrrolo[2,3-b]pyrazine-7-carboxylic acid [(S)-1-(1-hydroxy-1-methyl-ethyl)-pentyl]-amide], the IC50 is 453 nM.

As for `CCNC(=O)c1c[nH]c2ncc(Oc3ccc4ccccc4c3)nc12` [Example I-262, 2-(Naphthalen-2-yloxy)-5H-pyrrolo[2,3-b]pyrazine-7-carboxylic acid ethylamide], the IC50 worked out at 1870 nM.

For the molecule `CC(C)NC(=O)c1c[nH]c2ncc(Oc3cccc4[nH]ccc34)nc12` [Example I-274, 2-(1H-Indol-4-yloxy)-5H-pyrrolo[2,3-b]pyrazine-7-carboxylic acid isopropylamide], the IC50 was determined as 353 nM.

Turning to `CCC(=O)N[C@@H]1CCc2ccc(Oc3cnc4[nH]cc(C(=O)NC(C)C)c4n3)cc21` [Example I-282, 2-((R)-3-Propionylamino-indan-5-yloxy)-5H-pyrrolo[2,3-b]pyrazine-7-carboxylic acid isopropylamide], the IC50 came out at 125 nM.

Turning to `CC1CCCC(C)N1C(=O)c1ccc(-c2cnc3[nH]cc(C(=O)N[C@@H](C)C(C)(C)C)c3n2)s1` (stereo partly drawn) [Example I-181, 2-[5-(2,6-Dimethyl-piperidine-1-carbonyl)-thiophen-2-yl]-5H-pyrrolo[2,3-b]pyrazine-7-carboxylic acid ((S)-1,2,2-trimethyl-propyl)-amide], the IC50 came out at 0.62 nM.

For the molecule `CC(=O)NC1Cc2ccc(Oc3cnc4[nH]cc(C(=O)NC(C)C)c4n3)cc2C1` (stereo not drawn) [Example I-300, 2-(2-Acetylamino-indan-5-yloxy)-5H-pyrrolo[2,3-b]pyrazine-7-carboxylic acid isopropylamide], the IC50 was determined as 199 nM.

Consider `N#CCNC(=O)c1c[nH]c2ncc(C3CC3)nc12` [Example I-28, 2-Cyclopropyl-5H-pyrrolo[2,3-b]pyrazine-7-carboxylic acid cyanomethyl-amide], for which the 50% inhibitory concentration (IC50) is 681 nM.

For `CC(C)(O)C(C)(C)NC(=O)c1c[nH]c2ncc(C3CC3)nc12` [Example I-79, 2-Cyclopropyl-5H-pyrrolo[2,3-b]pyrazine-7-carboxylic acid (2-hydroxy-1,1,2-trimethyl-propyl)-amide], the IC50 amounted to 40.7 nM.

`COC(C)(C)CNC(=O)c1c[nH]c2ncc(C3CC3)nc12` [Example I-50, 2-Cyclopropyl-5H-pyrrolo[2,3-b]pyrazine-7-carboxylic acid (2-methoxy-2-methyl-propyl)-amide]: the IC50 worked out at 9.03 nM.

For `C[C@H](NC(=O)c1c[nH]c2ncc(-c3cn(-c4cccc(C(C)(C)C)c4)cn3)nc12)C(C)(C)C` [Example I-153, 2-[1-(3-tert-Butyl-phenyl)-1H-imidazol-4-yl]-5H-pyrrolo[2,3-b]pyrazine-7-carboxylic acid ((S)-1,2,2-trimethyl-propyl)-amide], the half-inhibitory concentration (IC50) is 75.4 nM.

In the case of `CC(C)[C@H](C)NC(=O)c1c[nH]c2ncc(Oc3ccccc3)nc12` [Example I-122, 2-Phenoxy-5H-pyrrolo[2,3-b]pyrazine-7-carboxylic acid ((S)-1,2-dimethyl-propyl)-amide], the IC50 was 63.8 nM.

With `C[C@H](NC(=O)c1c[nH]c2ncc(-c3ccc(C(=O)NC45CC6CC(CC(C6)C4)C5)s3)nc12)C(C)(C)C` [Example I-194, 2-[5-(Adamantan-1-ylcarbamoyl)-thiophen-2-yl]-5H-pyrrolo[2,3-b]pyrazine-7-carboxylic acid ((S)-1,2,2-trimethyl-propyl)-amide], the IC50 was determined as 1.34 nM.

Turning to `CC[C@@H](CO)NC(=O)c1c[nH]c2ncc(C3CC3)nc12` [Example I-40, 2-Cyclopropyl-5H-pyrrolo[2,3-b]pyrazine-7-carboxylic acid ((S)-1-hydroxymethyl-propyl)-amide], the IC50 was 128 nM.
